Read-outs that look alike come from different tables or passages of the source.
Key:
[1] = system: PC3 cells; test: Cell cycle analysis (propidium iodide), SC21, PC3; assay type: cell-based, human; conditions: 72 hours
Experimental: (§1) FIG. 17 depicts flow cytometric analysis of the cell cycle profiles of DU145, PC3, MDA-MB-435, and HEY cells treated with SC21. […] SC21 induced a G0/G1 phase arrest in DU145 and MDA-MB-435 cells and S phase arrest in PC3 and HEY cells.
(§2) Cell cycle perturbations induced by SC21 and camptothecin (CPT) were analyzed by propidium iodide DNA staining. Briefly, exponentially growing PC3 and DU145 cells were treated with different doses of the drug for 24, 48, and 72 hours. At the end of each treatment time, cells were collected and washed with PBS after a gentle centrifugation at 200×g for 5 minutes. Cells were thoroughly resuspended in 0.5 mL of PBS and fixed in 70% ethanol for at least 2 hours at 4° C. Ethanol-suspended cells were then centrifuged at 200×g for 5 minutes and washed twice in PBS to remove residual ethanol. For cell cycle analysis, the pellets were suspended in 1 mL of PBS containing 0.02 mg/mL of propidiumiodide, 0.5 mg/mL of DNase-free RNase A and 0.1% of Triton X-100 and incubated at 37° C. for 30 minutes. Cell cycle profiles were obtained using a FACScan flowcytometer (Becton Dickinson, San Jose, Calif.) and data were analyzed by ModFit LT software (Verity Software House, Inc., Topsham, Me.).
(§3) It was noteworthy that SC21 induced S phase arrest in PC3 and HEY cell lines (FIG. 17).

[2] = system: HEY cells; test: Cell cycle analysis (propidium iodide), SC21, HEY; assay type: cell-based, human; conditions: 72 hours
Experimental: as §1, §2, §3

[3] = system: DU145 cells; test: Annexin V/propidium iodide apoptosis assay, DU145; assay type: cell-based, human; conditions: 72 hours exposure, IC80
Experimental: FIG. 19 illustrates apoptosis analysis of DU145 cells treated with SC21 or CPT (IC80). Cells were treated with SC21 or CPT for 24, 48, and 72 h, harvested, stained with annexin V/propidium iodide and analyzed by flow cytometry. Untreated control cells (24 and 48 h) were also included in the analysis. Annexin VFITC signals are recorded in FL1-H or […] and propidium iodide in FL2-H or […]. Cells in the bottom left quadrant (annexin V-negative, propidium iodide-negative) are viable, whereas cells in the right quadrant (annexin V-positive, propidium iodide-negative) are in the early stages of apoptosis, and the cells in the top right quadrant (annexin V-positive, propidium iodide-positive) are in later stages of apoptosis and necrosis.
To quantify drug-induced apoptosis, annexin V/propidium iodide staining was done followed by flow cytometry. […] The resulting fluorescence (FLH-1 channel for green fluorescence and FLH-2 channel for red fluorescence) was measured by flow cytometry using a FACScan flow cytometer (Becton Dickinson).
SC21 and CPT-induced apoptosis was measured by flow cytometry (FIG. 18). SC21 at an IC80 dose for 72 hours induced 12% to 15% apoptosis as measured by calculating sub-G0/G1 population. […] This event precedes nuclear breakdown, DNA fragmentation, the appearance of most apoptosis-associated molecules, and is readily measured by annexin V binding assay. […]

[4] = system: MCF-7/ADR breast cancer cells; test: MTT cytotoxicity assay, MCF-7/ADR; assay type: cell-based; conditions: Homo sapiens, NCI/ADR-RES, read-out: CC50 values (mean ± SD)
Experimental: The sensitivity of a panel of seven human cancer cell lines to SC144 was assessed by MTT-assay. […] The sensitivity towards SC144 was time- and dose-dependent.

[5] = system: HOP-62 non-small cell lung cancer cells; test: Sensitivity of various cancer cells to SC144, HOP-62; assay type: cell-based; conditions: Homo sapiens
Description: (§4) The studies were expanded to other cell lines. […] Subnanomolar to low nanomolar potency was also observed in HCT-116 and HT29 colon cancer cell lines (Table 2).

[6] = system: EKVX non-small cell lung cancer cells; test: Sensitivity of various cancer cells to SC144, EKVX; assay type: cell-based; conditions: Homo sapiens
Description: as §4

[7] = system: SF-268 CNS cancer cells; test: Sensitivity of various cancer cells to SC144, SF-268; assay type: cell-based; conditions: Homo sapiens
Description: as §4

[8] = system: UACC-257 melanoma cells; test: Sensitivity of various cancer cells to SC144, UACC-257; assay type: cell-based; conditions: Homo sapiens
Description: as §4

[9] = system: MDA-MB-435 xenograft; test: microPET study of nude mouse with MDA-MB-435 xenograft treated with SC144; assay type: in vivo; conditions: 4 mg/kg daily i.p. 5 days; caliper measurements for 5 weeks
Experimental: Top row, baseline scans: (A) equilibrium-phase FDG, 30 min post injection; (B) FMAU, 10 min post injection; (C) FMAU, 60 min post injection. Bottom row, follow-up scans: (D) FDG, 30 min post injection; (E) FMAU, 10 min post injection; (F) FMAU, 60 min post injection. […] After five days of dosing, the drug treatment was discontinued and the follow-up scans were obtained on days 6 and 7.
[^18F]FDG is currently the most widely used radiotracer for imaging therapy response in oncology with PET. PET/[^18F]FDG measures viable cell density in tumors and also provides information on the expression of glucose transporters and hexokinase activity. […] Following cellular uptake, FMAU is phosphorylated by thymidine kinase and incorporated into DNA.
In later images at 30 and 60 min (FIG. 8C), FMAU had filled up the whole tumor, indicating the presence of dividing cells throughout.
FIGS. 8D-F show a repeat study of the same mouse after 5 days of treatment.

Row | SMILES | accumulation in S phase [1] [%] | accumulation in S phase [2] [%] | early plus late apoptotic cells [3] [%] | CC50 [4] [nM] | CC50 ([5]; HOP-62, read-out: CC50) [nM] | CC50 ([5]; non-small cell lung cancer cells HOP-62, EKVX, and HOP-92, read-out: CC50 values range) [nM] | CC50 [6] [nM] | CC50 [7] [nM] | CC50 [8] [nM] | long-term reduction of tumor volume compared with sham-treated control mice [9] [%]
1 | O=C(NNC(=O)c1ccccc1O)C1=CC2C=CC=CC2C=C1O (stereo not shown) [SC21] | 52 | 69 | 72 |  |  |  |  |  |  | 
2 | O=C(NNc1nc2cc(F)ccc2n2cccc12)c1cnccn1 [SC144, Pyrazine-2-carboxylic acid N′-(7-fluoro-pyrrolo[1,2-a]quinoxalin-4-yl)-hydrazide] |  |  |  | 2500 ± 1000 | 10 | 10 to 20 | 10 | 300 | 400 | > 50

— patent US20110034472A1, “Novel Compounds for Treatment of Cancer and Disorders Associated With Angiogenesis Function” (UNIVERSITY OF SOUTHERN CALIFORNIA, priority 2004, published 2011)
